# Laboratory results: US8889874B2, “Imidazolone-chalcone derivatives as potential anticancer agent and process for the preparation thereof” (Council of Scientific and Industrial Research, priority 2010, dated 2014)
# Read-outs that look alike come from different tables or passages of the source.
# Key:
# Assay in all cases: NCI anticancer screen, SRB assay, 48 h
# Assay type in all cases: cell-based, human
# OVCAR-8 (ovarian) = conditions: Homo sapiens
# Method in brief: (§1)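 Compounds were tested across fifty three human cancer cell lines from nine tumour types. Each line got a dose-response curve of at least five concentrations at 10-fold dilutions, with continuous drug exposure and sulforhodamine B protein staining to estimate viability or growth.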
# [1] = system: NCI-H460 (non-small cell lung); conditions: Homo sapiens
# Method in brief: as §1
# COLO 205 (colon) = conditions: Homo sapiens, COLO 205
# Method in brief: as §1
# KM12 (colon) = conditions: Homo sapiens
# Method in brief: as §1
# MCF7 (breast) = conditions: Homo sapiens
# Method in brief: as §1
# SK-OV-3 (ovarian) = conditions: Homo sapiens
# Method in brief: as §1
# [2] = system: HOP-92 (non-small cell lung); conditions: Homo sapiens
# Method in brief: as §1
# SK-MEL-2 (melanoma) = conditions: Homo sapiens
# Method in brief: as §1
# LOX IMVI (melanoma) = conditions: Homo sapiens
# Method in brief: as §1
# UO-31 (renal) = conditions: Homo sapiens
# Method in brief: as §1
# A498 (renal) = conditions: Homo sapiens
# Method in brief: as §1
# MDA-MB-231/ATCC (breast) = conditions: Homo sapiens
# Method in brief: as §1
# SNB-75 (CNS) = conditions: Homo sapiens
# Method in brief: as §1
# HT29 (colon) = conditions: Homo sapiens
# Method in brief: as §1
# PC-3 (prostate) = conditions: Homo sapiens
# Method in brief: as §1
# [3] = system: NCI-H522 (non-small cell lung); conditions: Homo sapiens
# Method in brief: as §1
# OVCAR-3 (ovarian) = conditions: Homo sapiens
# Method in brief: as §1
# OVCAR-5 (ovarian) = conditions: Homo sapiens
# Method in brief: as §1
# UACC-62 (melanoma) = conditions: Homo sapiens
# Method in brief: as §1
# ACHN (renal) = conditions: Homo sapiens
# Method in brief: as §1
# SW-620 (colon) = conditions: Homo sapiens
# Method in brief: as §1
# M14 (melanoma) = conditions: Homo sapiens
# Method in brief: as §1
# SF-539 (CNS) = conditions: Homo sapiens
# Method in brief: as §1
# MALME-3M (melanoma) = conditions: Homo sapiens
# Method in brief: as §1
# [4] = system: EKVX (non-small cell lung); conditions: Homo sapiens
# Method in brief: as §1
# SF-268 (CNS) = conditions: Homo sapiens
# Method in brief: as §1
# HS 578T (breast) = conditions: Homo sapiens
# Method in brief: as §1
# [5] = system: NCI-H322M (non-small cell lung); conditions: Homo sapiens
# Method in brief: as §1
# SF-295 (CNS) = conditions: Homo sapiens
# Method in brief: as §1
# BT-549 (breast) = conditions: Homo sapiens
# Method in brief: as §1
# [6] = system: K-562 (leukemia cell line); conditions: Homo sapiens
# Method in brief: as §1
# [7] = system: NCI-H23 (non-small cell lung); conditions: Homo sapiens
# Method in brief: as §1
# [8] = system: HOP-62 (non-small cell lung); conditions: Homo sapiens
# Method in brief: as §1
# RXF 393 (renal) = conditions: Homo sapiens
# Method in brief: as §1
# 786-0 (renal) = conditions: Homo sapiens
# Method in brief: as §1
# SK-MEL-28 (melanoma) = conditions: Homo sapiens
# Method in brief: as §1
# [9] = 48 h exposure, SRB, read-out: GI50
# [10] = read-out: pGI50 (-log of molar concentration causing 50% inhibition of net cell growth) (converted)
# [11] = COLO205, read-out: pGI50 (-log of molar concentration causing 50% inhibition of net cell growth) (converted)
# [12] = HT-29, 48 h exposure, SRB, read-out: GI50
# [13] = HT-29, read-out: pGI50 (-log of molar concentration causing 50% inhibition of net cell growth) (converted)
# [14] = PC-3, read-out: pGI50 (-log of molar concentration causing 50% inhibition of net cell growth) (converted)
# [15] = one prostate cancer cell line (PC-3), exposure at least 48 hrs, read-out: GI50
# [16] = Malme-3M, read-out: pGI50 (-log of molar concentration causing 50% inhibition of net cell growth) (converted)
# [17] = MALME-3M, 48 h exposure, SRB, read-out: GI50
# [18] = K562, 48 h exposure, SRB, read-out: GI50
# [19] = K562, read-out: pGI50 (-log of molar concentration causing 50% inhibition of net cell growth) (converted)
# [20] = RXF 393, 48 h exposure, SRB, read-out: GI50
# [21] = RXF-393, read-out: pGI50 (-log of molar concentration causing 50% inhibition of net cell growth) (converted)
smiles,measurement,setting,value
"COc1ccc(-c2cn(-c3cccc(C(=O)/C=C/c4ccc(O)c(OC)c4)c3)c(=O)[nH]2)cc1 [3b, 1-3-[(E)-3-(4-hydroxy-3-methoxyphenyl)-2-propenoyl]phenyl-4-(4-methoxyphenyl)-2,3-dihydro-1H-2-imidazolone]",GI50,OVCAR-8 (ovarian); [9],4970 nM
same,GI50,OVCAR-8 (ovarian); [10],5010 nM
same,GI50,[1]; [9],3230 nM
same,GI50,[1]; [10],3240 nM
same,GI50,COLO 205 (colon); [11],6610 nM
same,GI50,COLO 205 (colon); [9],6610 nM
same,GI50,KM12 (colon); [9],1770 nM
same,GI50,KM12 (colon); [10],1780 nM
same,GI50,MCF7 (breast); [9],3180 nM
same,GI50,MCF7 (breast); [10],3160 nM
same,GI50,SK-OV-3 (ovarian); [9],4770 nM
same,GI50,SK-OV-3 (ovarian); [10],4790 nM
same,GI50,[2]; [9],2960 nM
same,GI50,[2]; [10],2950 nM
same,GI50,SK-MEL-2 (melanoma); [9],5540 nM
same,GI50,SK-MEL-2 (melanoma); [10],5500 nM
same,GI50,LOX IMVI (melanoma); [9],2440 nM
same,GI50,LOX IMVI (melanoma); [10],2450 nM
same,GI50,UO-31 (renal); [9],5190 nM
same,GI50,UO-31 (renal); [10],5250 nM
same,GI50,A498 (renal); [9],3720 nM
same,GI50,A498 (renal); [10],3720 nM
same,GI50,MDA-MB-231/ATCC (breast); [9],5250 nM
same,GI50,MDA-MB-231/ATCC (breast); [10],5250 nM
same,GI50,SNB-75 (CNS); [9],4730 nM
same,GI50,SNB-75 (CNS); [10],4680 nM
same,GI50,HT29 (colon); [12],3840 nM
same,GI50,HT29 (colon); [13],3800 nM
same,GI50,PC-3 (prostate); [14],3020 nM
same,GI50,PC-3 (prostate); [15],3050 nM
same,GI50,[3]; [9],3480 nM
same,GI50,[3]; [10],3470 nM
same,GI50,OVCAR-3 (ovarian); [9],2700 nM
same,GI50,OVCAR-3 (ovarian); [10],2690 nM
same,GI50,OVCAR-5 (ovarian); [9],3380 nM
same,GI50,OVCAR-5 (ovarian); [10],3390 nM
same,GI50,UACC-62 (melanoma); [9],3960 nM
same,GI50,UACC-62 (melanoma); [10],3980 nM
same,GI50,ACHN (renal); [9],3400 nM
same,GI50,ACHN (renal); [10],3390 nM
same,GI50,SW-620 (colon); [9],2500 nM
same,GI50,SW-620 (colon); [10],2510 nM
same,GI50,M14 (melanoma); [9],5140 nM
same,GI50,M14 (melanoma); [10],5130 nM
same,GI50,SF-539 (CNS); [9],2250 nM
same,GI50,SF-539 (CNS); [10],2240 nM
same,GI50,MALME-3M (melanoma); [16],4470 nM
same,GI50,MALME-3M (melanoma); [17],4420 nM
same,GI50,[4]; [9],13400 nM
same,GI50,[4]; [10],13500 nM
same,GI50,SF-268 (CNS); [9],3400 nM
same,GI50,SF-268 (CNS); [10],3390 nM
same,GI50,HS 578T (breast); [9],4250 nM
same,GI50,HS 578T (breast); [10],4270 nM
same,GI50,[5]; [9],8200 nM
same,GI50,[5]; [10],8130 nM
same,GI50,SF-295 (CNS); [9],13900 nM
same,GI50,SF-295 (CNS); [10],13800 nM
same,GI50,BT-549 (breast); [9],4570 nM
same,GI50,BT-549 (breast); [10],4570 nM
same,GI50,[6]; [18],2350 nM
same,GI50,[6]; [19],2340 nM
same,GI50,[7]; [9],2850 nM
same,GI50,[7]; [10],2820 nM
same,GI50,[8]; [9],5150 nM
same,GI50,[8]; [10],5130 nM
same,GI50,RXF 393 (renal); [20],5850 nM
same,GI50,RXF 393 (renal); [21],5890 nM
same,GI50,786-0 (renal); [9],4530 nM
same,GI50,786-0 (renal); [10],4570 nM
same,GI50,SK-MEL-28 (melanoma); [9],2030 nM
same,GI50,SK-MEL-28 (melanoma); [10],2040 nM
"COc1cc(/C=C/C(=O)c2cccc(-n3cc(-c4ccccc4)[nH]c3=O)c2)cc(OC)c1OC [5a, 4-phenyl-1-3-[(E)-3-(3,4,5-trimethoxyphenyl)-2-propenoyl]phenyl-2,3-dihydro-1H-2-imidazolone]",GI50,OVCAR-8 (ovarian); [9],1620 nM
same,GI50,OVCAR-8 (ovarian); [10],1620 nM
same,GI50,[1]; [9],1400 nM
same,GI50,[1]; [10],1410 nM
same,GI50,COLO 205 (colon); [11],1510 nM
same,GI50,COLO 205 (colon); [9],1510 nM
same,GI50,KM12 (colon); [9],1370 nM
same,GI50,KM12 (colon); [10],1380 nM
same,GI50,MCF7 (breast); [9],310 nM
same,GI50,MCF7 (breast); [10],309 nM
same,GI50,SK-OV-3 (ovarian); [9],3270 nM
same,GI50,SK-OV-3 (ovarian); [10],3240 nM
same,GI50,[2]; [9],10800 nM
same,GI50,[2]; [10],10700 nM
same,GI50,SK-MEL-2 (melanoma); [9],2060 nM
same,GI50,SK-MEL-2 (melanoma); [10],2040 nM
same,GI50,LOX IMVI (melanoma); [9],480 nM
same,GI50,LOX IMVI (melanoma); [10],479 nM
same,GI50,UO-31 (renal); [9],1510 nM
same,GI50,UO-31 (renal); [10],1510 nM
same,GI50,A498 (renal); [9],2650 nM
same,GI50,A498 (renal); [10],2630 nM
same,GI50,MDA-MB-231/ATCC (breast); [9],2170 nM
same,GI50,MDA-MB-231/ATCC (breast); [10],2190 nM
same,GI50,SNB-75 (CNS); [9],4470 nM
same,GI50,SNB-75 (CNS); [10],4470 nM
same,GI50,HT29 (colon); [12],660 nM
same,GI50,HT29 (colon); [13],661 nM
same,GI50,PC-3 (prostate); [14],3240 nM
same,GI50,PC-3 (prostate); [15],3260 nM
same,GI50,[3]; [9],950 nM
same,GI50,[3]; [10],955 nM
same,GI50,OVCAR-3 (ovarian); [9],1230 nM
same,GI50,OVCAR-3 (ovarian); [10],1230 nM
same,GI50,OVCAR-5 (ovarian); [9],1880 nM
same,GI50,OVCAR-5 (ovarian); [10],1860 nM
same,GI50,UACC-62 (melanoma); [9],1520 nM
same,GI50,UACC-62 (melanoma); [10],1510 nM
same,GI50,ACHN (renal); [9],1600 nM
same,GI50,ACHN (renal); [10],1580 nM
same,GI50,SW-620 (colon); [9],390 nM
same,GI50,SW-620 (colon); [10],389 nM
same,GI50,M14 (melanoma); [9],1350 nM
same,GI50,M14 (melanoma); [10],1350 nM
same,GI50,SF-539 (CNS); [9],1680 nM
same,GI50,SF-539 (CNS); [10],1700 nM
same,GI50,MALME-3M (melanoma); [16],1320 nM
same,GI50,MALME-3M (melanoma); [17],1310 nM
same,GI50,[4]; [9],2300 nM
same,GI50,[4]; [10],2290 nM
same,GI50,SF-268 (CNS); [9],1920 nM
same,GI50,SF-268 (CNS); [10],1910 nM
same,GI50,HS 578T (breast); [9],3410 nM
same,GI50,HS 578T (breast); [10],3390 nM
same,GI50,[5]; [9],2020 nM
same,GI50,[5]; [10],2040 nM
same,GI50,SF-295 (CNS); [9],1900 nM
same,GI50,SF-295 (CNS); [10],1910 nM
same,GI50,BT-549 (breast); [9],1930 nM
same,GI50,BT-549 (breast); [10],1950 nM
same,GI50,[6]; [18],500 nM
same,GI50,[6]; [19],501 nM
same,GI50,[7]; [9],1430 nM
same,GI50,[7]; [10],1450 nM
same,GI50,[8]; [9],4120 nM
same,GI50,[8]; [10],4070 nM
same,GI50,RXF 393 (renal); [20],1710 nM
same,GI50,RXF 393 (renal); [21],1700 nM
same,GI50,786-0 (renal); [9],1380 nM
same,GI50,786-0 (renal); [10],1380 nM
same,GI50,SK-MEL-28 (melanoma); [9],1740 nM
same,GI50,SK-MEL-28 (melanoma); [10],1740 nM
